For orientation: Kd means the equilibrium constant for the complex coming apart.

This experiment is described as follows: Binding affinity to recombinant human CypD K175I mutant (44 to 207 residues) expressed in Escherichia coli cells assessed as dissociation constant by SPR analysis. A general note: SPR reads the build-up and loss of mass on a sensor chip optically.
For `O[C@@H]1CO[C@@H]2C[C@H]1Nc1ccc(F)cc12`, the Kd amounted to 7100 µM.
Consider `CSc1ccccc1[C@H]1CCCN1C(=O)CNC(=O)CCc1ccc2c(c1)[C@@H]1C[C@H](N2)[C@H](O)CO1`, for which the Kd amounted to 39 µM.
With `CCn1nnc(NC(=O)c2ccccc2)n1` the figure was 3900 µM; with `CSc1ccccc1[C@@H]1CCCN1C(=O)C(=O)NCc1ccc2c(c1)[C@H]1C[C@@H](N2)[C@H](O)CO1`, > 240 µM; with `CCN1Cc2cc(CCC(=O)NCCC(=O)N3CCC[C@@H]3c3ccccc3SC)ccc2NCCC1=O`, 420 µM.
On to `CCN1Cc2cc3c(cc2NCCC1=O)OCO3`, for which the Kd was 7500 µM.
`O=C(CN1C(=O)[C@@H]2[C@@H]3CC[C@@H](C3)[C@@H]2C1=O)NCc1ccc2c(c1)[C@H]1C[C@@H](N2)[C@H](O)CO1`: the Kd came to 0.66 µM.
Regarding `O=C(NCc1ccc2c(c1)[C@H]1C[C@@H](N2)[C@H](O)CO1)C(=O)N1CCCC1`, the Kd was > 1500 µM.
In the case of `O=C(O)CN1C(=O)[C@@H]2[C@@H]3CC[C@@H](C3)[C@@H]2C1=O`, the Kd is > 10000 µM.
As for `O=C(NCc1ccc2c(c1)[C@@H]1C[C@H](N2)[C@H](O)CO1)C(=O)N1CCCC1`, the Kd was determined as 217 µM.
With `CSc1ccccc1[C@H]1CCCN1C(=O)CN(C)C(=O)NCc1ccc2c(c1)[C@H]1C[C@@H](N2)[C@H](O)CO1` the figure was 7 µM; with `Cc1onc(-c2ccncc2)c1C(=O)O`, > 10000 µM; with `CCN1Cc2cc(NC(=O)CN3C(=O)C4C(C3=O)[C@H]3CC[C@@H]4C3)ccc2NCCC1=O` (stereo not given in full), > 6000 µM.
With `CCN1Cc2cc(CNC(=O)NCC(=O)N3CCC[C@@H]3c3ccccc3SC)ccc2NCCC1=O` the figure was 0.18 µM.
As for `CCN1Cc2cc(CCC(=O)NCC(=O)N3CCC[C@@H]3c3ccccc3SC)ccc2NCCC1=O`, the Kd was determined as 2.3 µM.
`CSc1ccccc1[C@H]1CCCN1C(=O)C(=O)NCc1ccc2c(c1)[C@H]1C[C@@H](N2)[C@H](O)CO1`: the Kd came to 184 µM.
`O=C(NCc1ccccn1)C(=O)NC1CCCC1`: the Kd stood at 1100 µM.
Consider `Nc1ccc(CCNC(=O)CN2C(=O)C3C4CCC(C4)C3C2=O)cc1` (stereo not given), for which the Kd is > 200 µM.
With `O=C(CN1C(=O)[C@@H]2[C@H]3CC[C@H](C3)[C@@H]2C1=O)NCc1ccc2c(c1)[C@H]1C[C@@H](N2)[C@H](O)CO1`, the Kd amounted to 1.2 µM.
For the compound `CCN1Cc2cc(NC(=O)NCC(=O)N3CCC[C@@H]3c3ccccc3SC)ccc2NCCC1=O`, the Kd is 260 µM.

These data come from ChEMBL document CHEMBL4359930, “Discovery of novel Cyclophilin D inhibitors starting from three dimensional fragments with millimolar potencies” (Bioorg Med Chem Lett, 2019).
